Measurements reported in the NIST ThermoML archive (doi:10.1021/je1005533).
± gives the expanded uncertainty stated by the source.

Experiment: refractive index (other wavelength) (dimensionless); xn = mol fraction of the nth substance listed
Details: 101.3 kPa, Liquid, Wavelength=632.8 nm, Standard Abbe refractometry

CCCCCCCCCCCCCCCC [hexadecane] + COC(=O)OC
Details | refractive index
308.19 K, x2 = 0.132 | 1.4228 ± 0.0007
308.21 K, x2 = 0 | 1.427 ± 0.0007
308.29 K, x2 = 0.397 | 1.4128 ± 0.0007
308.35 K, x2 = 0.219 | 1.4197 ± 0.0007
308.4 K, x2 = 0.291 | 1.417 ± 0.0007
309.24 K, x2 = 0 | 1.4265 ± 0.0007
309.25 K, x2 = 0.132 | 1.4224 ± 0.0007
309.32 K, x2 = 0.397 | 1.4123 ± 0.0007
309.54 K, x2 = 0.291 | 1.4164 ± 0.0007
309.66 K, x2 = 0.219 | 1.4191 ± 0.0007
310.21 K, x2 = 0 | 1.4261 ± 0.0007
310.33 K, x2 = 0.132 | 1.4219 ± 0.0007
310.38 K, x2 = 0.397 | 1.4118 ± 0.0007
310.83 K, x2 = 0.291 | 1.4158 ± 0.0007
311.09 K, x2 = 0.219 | 1.4185 ± 0.0007
311.24 K, x2 = 0 | 1.4256 ± 0.0007
311.39 K, x2 = 0.132 | 1.4214 ± 0.0007
311.42 K, x2 = 0.397 | 1.4113 ± 0.0007
312.09 K, x2 = 0.291 | 1.4153 ± 0.0007
312.18 K, x2 = 0.6 | 1.4005 ± 0.0007
312.2 K, x2 = 0.517 | 1.4052 ± 0.0007
312.3 K, x2 = 0 | 1.4252 ± 0.0007
312.43 K, x2 = 0.132 | 1.421 ± 0.0007
312.46 K, x2 = 0.397 | 1.4108 ± 0.0007
312.54 K, x2 = 0.219 | 1.4179 ± 0.0007
313.16 K, x2 = 0.517 | 1.4048 ± 0.0007
313.32 K, x2 = 0.6 | 1.3999 ± 0.0007
313.33 K, x2 = 0.291 | 1.4147 ± 0.0007
313.34 K, x2 = 0 | 1.4248 ± 0.0007
313.51 K, x2 = 0.132 | 1.4206 ± 0.0007
313.53 K, x2 = 0.397 | 1.4104 ± 0.0007
313.95 K, x2 = 0.219 | 1.4173 ± 0.0007
314.26 K, x2 = 0.517 | 1.4043 ± 0.0007
314.44 K, x2 = 0 | 1.4244 ± 0.0007
314.44 K, x2 = 0.6 | 1.3994 ± 0.0007
314.55 K, x2 = 0.132 | 1.4201 ± 0.0007
314.62 K, x2 = 0.397 | 1.41 ± 0.0007
314.63 K, x2 = 0.291 | 1.4142 ± 0.0007
315.34 K, x2 = 0.517 | 1.4038 ± 0.0007
315.5 K, x2 = 0.6 | 1.3989 ± 0.0007
315.54 K, x2 = 0 | 1.4239 ± 0.0007
315.57 K, x2 = 0.132 | 1.4197 ± 0.0007
315.59 K, x2 = 0.219 | 1.4166 ± 0.0007
315.71 K, x2 = 0.397 | 1.4094 ± 0.0007
315.92 K, x2 = 0.291 | 1.4136 ± 0.0007
316.19 K, x2 = 0.689 | 1.3925 ± 0.0007
316.42 K, x2 = 0.517 | 1.4033 ± 0.0007
316.45 K, x2 = 0.804 | 1.3827 ± 0.0007
316.55 K, x2 = 0 | 1.4235 ± 0.0007
316.56 K, x2 = 0.6 | 1.3984 ± 0.0007
316.64 K, x2 = 0.132 | 1.4192 ± 0.0007
316.73 K, x2 = 0.397 | 1.409 ± 0.0007
316.86 K, x2 = 0.872 | 1.3751 ± 0.0007
317.02 K, x2 = 0.689 | 1.3921 ± 0.0007
317.08 K, x2 = 0.219 | 1.416 ± 0.0007
317.2 K, x2 = 0.291 | 1.4131 ± 0.0007
317.25 K, x2 = 0.804 | 1.3823 ± 0.0007
317.51 K, x2 = 0.517 | 1.4028 ± 0.0007
317.56 K, x2 = 0 | 1.4231 ± 0.0007
317.67 K, x2 = 0.132 | 1.4188 ± 0.0007
317.67 K, x2 = 0.6 | 1.3979 ± 0.0007
317.74 K, x2 = 0.872 | 1.3747 ± 0.0007
317.81 K, x2 = 0.397 | 1.4085 ± 0.0007
317.89 K, x2 = 0.689 | 1.3917 ± 0.0007
318.06 K, x2 = 0.804 | 1.3819 ± 0.0007
318.49 K, x2 = 0.291 | 1.4125 ± 0.0007
318.5 K, x2 = 0.219 | 1.4154 ± 0.0007
318.55 K, x2 = 0.872 | 1.3743 ± 0.0007
318.61 K, x2 = 0 | 1.4226 ± 0.0007
318.74 K, x2 = 0.132 | 1.4183 ± 0.0007
318.84 K, x2 = 0.689 | 1.3913 ± 0.0007
318.89 K, x2 = 0.397 | 1.408 ± 0.0007
318.91 K, x2 = 0.804 | 1.3815 ± 0.0007
319.4 K, x2 = 0.872 | 1.3739 ± 0.0007
319.74 K, x2 = 0.689 | 1.3909 ± 0.0007
319.79 K, x2 = 0.804 | 1.381 ± 0.0007
320.28 K, x2 = 0.872 | 1.3735 ± 0.0007
320.64 K, x2 = 0.804 | 1.3806 ± 0.0007
